According to the Kinase Knowledgebase extract (Sharma et al. 2016):
Where “and” joins values, the source holds several entries; their conditions need not be identical. Equal values may be shown once.

Experiments:
[1] = target: EGFR (human), P00533 [L858R]
EGFR (human) = EGFR (human) (UniProt P00533)
[2] = target: EGFR (Human), P00533 [T790M/L858R]; details: baf3
[3] = target: EGFR (Human), P00533 [Assessment of EGFR-Del T790M Dependent Cell Proliferation in BaF3 Cells]
[4] = target: EGFR (Human), P00533 [T790M/L858R]

Sequence of EGFR (Human), P00533 [T790M/L858R] (P00533 whole entry T790M/L858R, looked up): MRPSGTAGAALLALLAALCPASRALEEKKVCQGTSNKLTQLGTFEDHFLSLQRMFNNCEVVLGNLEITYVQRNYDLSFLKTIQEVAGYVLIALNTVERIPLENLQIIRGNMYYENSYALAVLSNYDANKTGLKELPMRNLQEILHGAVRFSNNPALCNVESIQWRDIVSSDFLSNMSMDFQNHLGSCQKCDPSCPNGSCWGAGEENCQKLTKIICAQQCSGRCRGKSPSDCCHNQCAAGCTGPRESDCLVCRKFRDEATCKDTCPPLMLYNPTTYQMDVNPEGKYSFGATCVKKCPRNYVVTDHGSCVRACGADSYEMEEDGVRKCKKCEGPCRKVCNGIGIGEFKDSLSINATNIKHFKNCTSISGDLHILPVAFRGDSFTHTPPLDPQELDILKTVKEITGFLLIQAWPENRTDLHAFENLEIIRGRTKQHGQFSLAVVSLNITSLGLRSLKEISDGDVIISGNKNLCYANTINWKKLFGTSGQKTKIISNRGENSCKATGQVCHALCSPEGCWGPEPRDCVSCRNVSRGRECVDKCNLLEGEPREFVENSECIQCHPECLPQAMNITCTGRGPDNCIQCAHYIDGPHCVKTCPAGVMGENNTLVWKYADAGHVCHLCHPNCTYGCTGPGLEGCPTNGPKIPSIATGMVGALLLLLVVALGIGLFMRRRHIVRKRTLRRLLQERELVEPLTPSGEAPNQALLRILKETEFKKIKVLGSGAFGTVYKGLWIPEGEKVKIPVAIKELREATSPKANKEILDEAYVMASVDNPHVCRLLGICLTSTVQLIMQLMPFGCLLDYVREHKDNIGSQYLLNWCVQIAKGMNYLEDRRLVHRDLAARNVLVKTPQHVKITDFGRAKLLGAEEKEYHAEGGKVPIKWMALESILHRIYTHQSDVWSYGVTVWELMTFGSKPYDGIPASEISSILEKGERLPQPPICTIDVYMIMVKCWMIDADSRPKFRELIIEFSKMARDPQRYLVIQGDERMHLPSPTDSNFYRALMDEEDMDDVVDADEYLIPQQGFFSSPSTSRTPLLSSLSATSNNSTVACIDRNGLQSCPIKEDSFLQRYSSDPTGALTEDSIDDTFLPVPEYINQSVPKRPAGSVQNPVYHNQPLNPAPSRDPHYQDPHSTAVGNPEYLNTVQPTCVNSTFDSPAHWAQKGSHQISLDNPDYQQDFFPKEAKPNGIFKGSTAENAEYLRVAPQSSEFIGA
Sequence of EGFR (Human), P00533 [Assessment of EGFR-Del T790M Dependent Cell Proliferation in BaF3 Cells] (P00533 whole entry, looked up, stated change not applied): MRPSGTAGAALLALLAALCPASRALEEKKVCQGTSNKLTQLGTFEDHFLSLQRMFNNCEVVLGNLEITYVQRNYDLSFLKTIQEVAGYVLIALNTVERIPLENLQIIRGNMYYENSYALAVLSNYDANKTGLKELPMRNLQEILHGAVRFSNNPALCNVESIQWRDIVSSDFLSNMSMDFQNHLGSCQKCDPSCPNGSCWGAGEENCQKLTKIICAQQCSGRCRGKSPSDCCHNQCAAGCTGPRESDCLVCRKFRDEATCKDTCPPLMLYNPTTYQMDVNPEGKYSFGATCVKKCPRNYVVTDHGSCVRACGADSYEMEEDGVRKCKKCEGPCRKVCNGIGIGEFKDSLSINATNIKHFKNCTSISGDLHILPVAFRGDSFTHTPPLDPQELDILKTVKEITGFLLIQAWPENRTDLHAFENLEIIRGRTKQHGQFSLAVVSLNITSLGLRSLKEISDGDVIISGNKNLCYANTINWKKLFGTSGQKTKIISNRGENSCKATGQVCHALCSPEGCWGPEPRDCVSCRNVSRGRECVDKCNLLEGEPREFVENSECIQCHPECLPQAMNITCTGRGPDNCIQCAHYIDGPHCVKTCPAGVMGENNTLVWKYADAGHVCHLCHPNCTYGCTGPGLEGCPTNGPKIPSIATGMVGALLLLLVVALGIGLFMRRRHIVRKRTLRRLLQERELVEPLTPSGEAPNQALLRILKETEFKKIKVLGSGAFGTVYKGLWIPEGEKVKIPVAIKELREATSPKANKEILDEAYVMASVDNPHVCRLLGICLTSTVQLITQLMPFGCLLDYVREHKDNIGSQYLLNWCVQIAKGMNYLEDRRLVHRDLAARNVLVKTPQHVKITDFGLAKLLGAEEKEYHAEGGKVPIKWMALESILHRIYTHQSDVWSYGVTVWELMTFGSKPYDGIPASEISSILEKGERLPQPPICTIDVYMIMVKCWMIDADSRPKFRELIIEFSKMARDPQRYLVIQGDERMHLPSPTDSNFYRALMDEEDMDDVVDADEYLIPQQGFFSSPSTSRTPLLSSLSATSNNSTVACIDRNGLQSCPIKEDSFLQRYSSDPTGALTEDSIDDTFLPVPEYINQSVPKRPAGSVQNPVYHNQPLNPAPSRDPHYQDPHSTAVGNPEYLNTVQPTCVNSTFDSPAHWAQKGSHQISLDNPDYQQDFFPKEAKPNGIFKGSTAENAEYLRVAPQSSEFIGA
Sequence of EGFR (human) (P00533 whole entry, looked up): as the sequence (P00533 whole entry, looked up, stated change not applied) above
Sequence of EGFR (human), P00533 [L858R] (P00533 whole entry L858R, looked up): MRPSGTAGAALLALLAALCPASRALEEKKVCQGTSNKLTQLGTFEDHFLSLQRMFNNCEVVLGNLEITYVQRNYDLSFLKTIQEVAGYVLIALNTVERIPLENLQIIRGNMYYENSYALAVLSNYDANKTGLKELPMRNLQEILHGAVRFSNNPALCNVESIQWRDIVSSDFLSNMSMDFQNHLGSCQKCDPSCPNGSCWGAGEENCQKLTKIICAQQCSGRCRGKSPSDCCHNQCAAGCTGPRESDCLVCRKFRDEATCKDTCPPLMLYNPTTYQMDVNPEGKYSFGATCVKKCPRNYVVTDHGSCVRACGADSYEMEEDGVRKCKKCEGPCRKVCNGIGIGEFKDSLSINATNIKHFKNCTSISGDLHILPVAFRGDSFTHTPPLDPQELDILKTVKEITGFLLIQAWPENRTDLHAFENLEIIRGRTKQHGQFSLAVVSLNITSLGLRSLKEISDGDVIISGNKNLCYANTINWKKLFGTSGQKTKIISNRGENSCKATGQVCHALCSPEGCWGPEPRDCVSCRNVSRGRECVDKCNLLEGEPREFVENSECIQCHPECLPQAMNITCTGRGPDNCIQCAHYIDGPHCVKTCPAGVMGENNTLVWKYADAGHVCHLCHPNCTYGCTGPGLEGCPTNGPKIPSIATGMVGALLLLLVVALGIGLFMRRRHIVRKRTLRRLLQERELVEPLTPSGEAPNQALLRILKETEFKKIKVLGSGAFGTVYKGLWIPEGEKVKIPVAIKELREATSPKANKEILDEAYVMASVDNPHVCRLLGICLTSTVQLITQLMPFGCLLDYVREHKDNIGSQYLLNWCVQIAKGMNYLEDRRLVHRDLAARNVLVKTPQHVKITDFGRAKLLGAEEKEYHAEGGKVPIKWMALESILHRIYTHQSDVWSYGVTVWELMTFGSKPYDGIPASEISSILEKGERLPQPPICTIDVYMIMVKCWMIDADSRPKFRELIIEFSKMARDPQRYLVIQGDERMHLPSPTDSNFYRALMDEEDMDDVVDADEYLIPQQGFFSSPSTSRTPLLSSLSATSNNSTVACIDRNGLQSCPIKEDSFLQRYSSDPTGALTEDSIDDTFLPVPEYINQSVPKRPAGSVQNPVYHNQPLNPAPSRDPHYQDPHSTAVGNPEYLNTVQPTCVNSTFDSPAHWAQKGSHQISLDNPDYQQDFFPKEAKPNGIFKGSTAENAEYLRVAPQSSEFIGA

Row | SMILES | IC50 [1] [µM] | IC50 (EGFR (human)) [µM] | IC50 [2] | IC50 [3] | IC50 [4] [µM]
1 | C=CC(=O)Nc1cc(Nc2ncc(Cl)c(Nc3ccccc3P(C)(C)=O)n2)c(OC)cc1N1CCCC(N(C)C)C1 (stereo not given) | < 0.05 | < 0.05 | < 0.05 µM | < 0.05 µM | < 0.05
2 | C=CC(=O)Nc1cc(Nc2ncc(Cl)c(Nc3ccccc3P(C)(C)=O)n2)c(OC)cc1N1CCC(N(C)CCN(CC)CC)C1 (stereo not given) | < 0.05 | < 0.05 | 0.101 to 0.25 µM | < 0.05 µM | < 0.05
3 | C=CC(=O)Nc1cc(Nc2ncc(Cl)c(Nc3ccccc3P(C)(C)=O)n2)c(Cl)cc1OC(COC)CN(C)C (stereo not given) | < 0.05 | < 0.05 | < 0.05 µM | < 0.05 µM | < 0.05
4 | COCC#CC(=O)Nc1ccc(OC)c(Nc2ncc(Cl)c(Nc3ccccc3P(C)(C)=O)n2)c1 | < 0.05 | < 0.05 | < 0.05 µM | < 0.05 µM | < 0.05
5 | C=CC(=O)Nc1cc(Nc2ncc(Cl)c(Nc3ccccc3P(C)(C)=O)n2)c(OC)cc1OCc1ccncc1 | < 0.05 | < 0.05 | 0.101 to 0.25 µM | < 0.05 µM | < 0.05
6 | C=CC(=O)Nc1cc(Nc2ncc(Cl)c(Nc3ccccc3P(C)(C)=O)n2)c(OC)cc1N1CCC(N(C)C)CC1 | < 0.05 | < 0.05 | 0.101 to 0.25 µM | < 0.05 µM | < 0.05
7 | C=CC(=O)Nc1cc(Nc2ncc(Cl)c(Nc3ccccc3P(C)(C)=O)n2)c(OC)cc1C | < 0.05 | < 0.05 | < 0.05 µM | < 0.05 µM | < 0.05
8 | C=CC(=O)Nc1ccc(CC)c(Nc2ncc(Cl)c(Nc3ccccc3P(C)(C)=O)n2)c1 | < 0.05 | < 0.05 | < 0.05 µM | < 0.05 µM | < 0.05
9 | C=CC(=O)Nc1cc(Nc2ncc(Cl)c(Nc3ccccc3P(C)(C)=O)n2)c(OC)cc1N1CCN(C2CCN(C)CC2)CC1 | < 0.05 | < 0.05 | 0.101 to 0.25 µM | 0.05 to 0.1 µM | < 0.05
10 | COCCC#CC(=O)Nc1cc(Nc2ncc(Cl)c(Nc3ccccc3P(C)(C)=O)n2)c(OC)cc1N1CCOCC1 | < 0.05 | < 0.05 | < 0.05 µM | < 0.05 µM | < 0.05
11 | C=CC(=O)Nc1cc(Nc2ncc(Cl)c(Nc3ccccc3P(C)(C)=O)n2)c(OC)cc1OC(CF)CN(CC)CC (stereo not given) | < 0.05 | < 0.05 | < 0.05 µM | < 0.05 µM | < 0.05
12 | C=CC(=O)Nc1cc(Nc2ncc(Cl)c(Nc3ccccc3P(C)(C)=O)n2)c(OC)cc1N1CC[C@H](N(C)C)C1 | < 0.05 | < 0.05 | < 0.05 µM | < 0.05 µM | < 0.05
13 | CNC(=O)/C=C\C(=O)Nc1ccc(OC)c(Nc2ncc(Cl)c(Nc3ccccc3P(C)(C)=O)n2)c1 | < 0.05 | – | 0.101 to 0.25 µM | < 0.05 µM | < 0.05
14 | C=CC(=O)Nc1cc(Nc2ncc(Cl)c(Nc3ccccc3P(C)(C)=O)n2)c(OC)cc1N1CC(N2CCCC2)C1 | < 0.05 | < 0.05 | < 0.05 µM | < 0.05 µM | < 0.05
15 | COc1cc(N2CCCC2)c(NC(=O)C#CCCN2CCN(C)CC2)cc1Nc1ncc(Cl)c(Nc2ccccc2P(C)(C)=O)n1 | < 0.05 | < 0.05 | 0.101 to 0.25 µM | 0.101 to 0.25 µM | < 0.05
16 | C=CC(=O)Nc1cc(Nc2ncc(Cl)c(Nc3ccccc3P(C)(C)=O)n2)c(OC)cc1C#CC(C)(C)N1CCCC1 | < 0.05 | 0.05 to 0.1 | < 0.05 µM | < 0.05 µM | < 0.05
17 | C=CC(=O)Nc1cc(Nc2ncc(Cl)c(Nc3ccccc3P(C)(C)=O)n2)c(OC)cc1OCCN1CCCCC1 | < 0.05 | < 0.05 | < 0.05 µM | < 0.05 µM | < 0.05
18 | COCC#CC(=O)Nc1cc(Nc2ncc(Cl)c(Nc3ccccc3P(C)(C)=O)n2)c(OC)cc1N1CCC(N(C)C)C1 (stereo not given) | < 0.05 | < 0.05 | < 0.05 µM | < 0.05 µM | < 0.05

Row | SMILES | IC50 [1] [µM] | IC50 (EGFR (human)) [µM] | IC50 [2] | IC50 [3] | IC50 [4] [µM]
19 | COc1ccc(NC(=O)/C=C/CN2CCCCC2)cc1Nc1ncc(Cl)c(Nc2ccccc2P(C)(C)=O)n1 | < 0.05 | < 0.05 | < 0.05 µM | < 0.05 µM | < 0.05
20 | C=C(CN1CCCC1)C(=O)Nc1ccc(OC)c(Nc2ncc(Cl)c(Nc3ccccc3P(C)(C)=O)n2)c1 | < 0.05 | < 0.05 | < 0.05 µM | < 0.05 µM | < 0.05
21 | COc1ccc(NC(=O)CCl)cc1Nc1ncc(Cl)c(Nc2ccccc2P(C)(C)=O)n1 | < 0.05 | < 0.05 | < 0.05 µM | < 0.05 µM | < 0.05
22 | C=CC(=O)Nc1ccc(OC)c(Nc2ncc(Cl)c(Nc3ccc(OCCCN(C)C)cc3P(C)(C)=O)n2)c1 | < 0.05 | < 0.05 | < 0.05 µM | < 0.05 µM | < 0.05
23 | COCC#CC(=O)Nc1cc(Nc2ncc(Cl)c(Nc3ccccc3P(C)(C)=O)n2)c(OC)cc1N1CCOCC1 | < 0.05 | < 0.05 | < 0.05 µM | < 0.05 µM | < 0.05
24 | C=CC(=O)Nc1ccc(OC)c(Nc2ncc(Cl)c(Nc3ccc(OCC4CCOCC4)cc3P(C)(C)=O)n2)c1 | < 0.05 | 0.05 to 0.1 | < 0.05 µM | < 0.05 µM | < 0.05
25 | C=CC(=O)Nc1cc(Nc2ncc(Cl)c(Nc3ccccc3P(C)(C)=O)n2)c(OC)cc1N1CCC(N2CCCC2)C1 (stereo not given) | < 0.05 | < 0.05 | < 0.05 µM | < 0.05 µM | < 0.05
26 | C=CC(=O)Nc1ccc(OC)c(Nc2ncc(Cl)c(Nc3ccc(OC4CCOC4)cc3P(C)(C)=O)n2)c1 (stereo not given) | < 0.05 | < 0.05 | 0.05 to 0.1 µM | < 0.05 µM | < 0.05
27 | C=CC(=O)Nc1cc(Nc2ncc(Cl)c(Nc3ccccc3P(C)(C)=O)n2)c(OC)cc1C#CC1(N(C)C)CC1 | < 0.05 | – | 0.101 to 0.25 µM | 0.101 to 0.25 µM | < 0.05
28 | CC#CC(=O)Nc1cc(Nc2ncc(Cl)c(Nc3ccccc3P(C)(C)=O)n2)c(OC)cc1OC1COC1 | < 0.05 | – | 0.05 to 0.1 µM | < 0.05 µM | 0.05 to 0.1
29 | C=CC(=O)Nc1cc(Nc2ncc(Cl)c(Nc3ccccc3P(C)(C)=O)n2)c(OC)cc1C#CCN(CC)CC | < 0.05 | – | < 0.05 µM | < 0.05 µM | < 0.05
30 | C=CC(=O)Nc1cc(Nc2ncc(Cl)c(Nc3ccccc3P(C)(C)=O)n2)c(OC)cc1N1CCC(N2CCN(C)CC2)CC1 | – | < 0.05 | 0.05 to 0.1 µM and < 0.05 µM | 0.05 to 0.1 µM and < 0.05 µM | < 0.05
31 | C=CC(=O)Nc1cc(Nc2ncc(Cl)c(Nc3ccccc3P(C)(C)=O)n2)c(OC)cc1OCC1CCOCC1 | < 0.05 | – | 0.101 to 0.25 µM | 0.05 to 0.1 µM | 0.05 to 0.1
32 | COc1ccc(NC(=O)C#Cc2ccccc2)cc1Nc1ncc(Cl)c(Nc2ccccc2P(C)(C)=O)n1 | < 0.05 | – | < 0.05 µM | < 0.05 µM | < 0.05
33 | CC#CC(=O)Nc1cc(Nc2ncc(Cl)c(Nc3ccccc3P(C)(C)=O)n2)c(OC)cc1OCCN1CCCC1 | < 0.05 | – | 0.101 to 0.25 µM | < 0.05 µM | < 0.05
34 | C=CC(=O)Nc1cc(Nc2ncc(Cl)c(Nc3ccccc3P(C)(C)=O)n2)c(OC)cc1OC1COC1 | < 0.05 | – | 0.05 to 0.1 µM | < 0.05 µM | < 0.05
35 | C=C(F)C(=O)Nc1ccc(OC)c(Nc2ncc(Cl)c(Nc3ccccc3P(C)(C)=O)n2)c1 | < 0.05 | – | 0.05 to 0.1 µM | < 0.05 µM | 0.05 to 0.1
